Results reported in article PMC9142968, “Nitro-Group-Containing Thiopeptide Derivatives as Promising Agents to Target Clostridioides difficile” (Pharmaceuticals, 2022).
In brackets after ≈: the same amount, converted by molar mass. Read-outs that look alike come from different tables or passages of the source. Values belong to the compound of their own block, whether it stands above or below them.

Assays:
Plasma stability = format: in vitro ADME; settings: human plasma, 30 min; read-out: PS % Remaining (30 min)
Method: No significant metabolic liabilities were noted. Incubation of AJ-024 for 30 min with human liver microsomes and with human plasma proteins returned 63.8% and 95.9% of unchanged compound, respectively.

CYP2C19 = CYP2C19 (Homo sapiens, UniProt P33261); assay: Inhibition of CYP enzyme activity (S-mephenytoin probe); settings: test compound 10 uM; activity expressed as percentage of control
CYP2C19, sequence (P33261 whole entry): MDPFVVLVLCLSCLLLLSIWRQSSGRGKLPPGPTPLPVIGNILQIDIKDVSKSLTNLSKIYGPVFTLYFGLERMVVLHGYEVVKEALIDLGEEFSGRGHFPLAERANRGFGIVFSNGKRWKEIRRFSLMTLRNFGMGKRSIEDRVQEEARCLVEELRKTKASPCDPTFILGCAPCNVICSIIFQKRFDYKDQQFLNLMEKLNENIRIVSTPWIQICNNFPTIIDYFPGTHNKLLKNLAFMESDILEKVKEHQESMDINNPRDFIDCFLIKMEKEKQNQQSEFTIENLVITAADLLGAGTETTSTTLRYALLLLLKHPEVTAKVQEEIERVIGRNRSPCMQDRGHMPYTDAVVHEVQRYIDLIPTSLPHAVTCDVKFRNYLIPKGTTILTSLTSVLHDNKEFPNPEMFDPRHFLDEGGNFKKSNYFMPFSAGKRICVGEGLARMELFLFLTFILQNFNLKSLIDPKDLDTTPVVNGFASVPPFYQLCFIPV

S. aureus = assay: MIC against Gram-positive/Gram-negative panel; format: cell-based; settings: Staphylococcus aureus
E. faecalis = assay: MIC against Gram-positive/Gram-negative panel; format: cell-based; settings: Enterococcus faecalis
E. faecium = assay: MIC against Gram-positive/Gram-negative panel; format: cell-based; settings: Enterococcus faecium
E. coli = assay: MIC against Gram-positive/Gram-negative panel; format: cell-based; settings: Escherichia coli, ATCC25922
K. pneumoniae = assay: MIC against Gram-positive/Gram-negative panel; format: cell-based; settings: Klebsiella pneumoniae, ATCC10031
P. aeruginosa = assay: MIC against Gram-positive/Gram-negative panel; format: cell-based; settings: Pseudomonas aeruginosa, ATCC27853
A. baumannii = assay: MIC against Gram-positive/Gram-negative panel; format: cell-based; settings: Acinetobacter baumannii, ATCC17904
C. difficile [1] = assay: MIC by agar dilution, representative C. difficile strains; format: cell-based; settings: Clostridioides difficile
[2] = tested on: C. difficile clinical isolates; assay: MIC by agar dilution, classified C. difficile clinical isolates (South Korea); format: cell-based, Clostridioides difficile
[3] = tested on: C. difficile ribotype 027; assay: Time-kill assay; format: cell-based, Clostridioides difficile; settings: C. difficile ribotype 027, at 1×, 2× and 4× MIC; bactericidal = ≥3 log10 CFU/mL reduction vs starting inoculum
Method: The time-kill studies were performed by the CLSI method. […] Vancomycin was diluted in distilled water and AJ-024 was diluted in 1% (v/v) DMSO. […] Samples were removed at 0, 3, 6, and 24 h post inoculation, and serial 10-fold dilutions were performed. The number of viable cells were determined on BHI agar containing 0.5% yeast extract and 5% defibrinated sheep blood after 24 h of incubation. The plates were incubated at 37 ℃ in an anaerobic chamber. Antimicrobials were considered bactericidal at the lowest concentration that reduced the original inoculum by 3 log 10 CFU/mL at each of the time periods and bacteriostatic if the inoculum was reduced by 0 to 3 log 10 CFU/mL.

[4] = tested on: C. difficile ribotype 027; assay: Mouse IBD-C. difficile comorbidity infection model; format: in vivo; settings: mice, DSS-induced IBD + C. difficile ribotype 027, 30 mg/kg once daily oral gavage, observed period of 15 days
Method: C. difficile ribotype 027 was grown on blood agar plate and incubated for two days at 37 ℃ in an anaerobic chamber and sub-cultured on 70:30 sporulation medium to facilitate the sporulation of C. difficile ribotype 027. Briefly, the sporulation medium consists of 70% SMC (Bacto peptone 90 g, protease peptone 5 g, NH4SO4 1 g, tris base 1.5 g, agar 15 g per liter) and 30% BHIS (BHI agar with 0.5% yeast extract) agar. For inoculation, bacterial colonies were suspended in 0.9% saline solution and further diluted with saline solutions to adjust OD (Optical Density) 1.0 at 1/10 of original saline solutions. Groups of five male C57BL/6J mice were injected orally with a single 0.5 mL dose of the bacterial suspension.
All animal experiments were conducted in accordance with the ethical guidelines of the Ethics Review Committee for Animal Experimentation at Handong Global University (Republic of Korea, protocol #HGU-20211214-20). C57BL/6J male (4-week-old male weighing 20 to 22 g, Daehan Bio Link Co., Ltd., Eumseong, Korea) 5 mouse per group was used in C. difficile infection model. Mice were maintained in animal chambers kept at 23 ± 2 ℃ with 55% ± 20% relative humidity. An amount of 2% dextran sodium sulfate (DSS, MP biomedical, Irvine, CA, USA) was inoculated by drinking water for 5 days to cause colitis in mice. […]

C. difficile [5] = settings: treatment of CDI; background statement of the introduction; cited from earlier work
in vitro = settings: human, plasma
[6] = ATCC25923, S. aureus ATCC 25923, read-out: MIC
[7] = ATCC43300, S. aureus ATCC 43300, read-out: MIC
[8] = S. aureus clinical isolate, read-out: MIC
[9] = ATCC29212, E. faecalis ATCC 29212, read-out: MIC
[10] = E. faecalis clinical isolate, read-out: MIC
[11] = ATCC19434, E. faecium ATCC 19434, read-out: MIC
[12] = E. faecium clinical isolate, read-out: MIC
[13] = E. coli ATCC 25922, read-out: MIC
[14] = K. pneumoniae ATCC 10031, read-out: MIC
[15] = P. aeruginosa ATCC 27853, read-out: MIC
[16] = A. baumannii ATCC 17904, read-out: MIC

remaining at 0.5 h (Plasma stability): 95.2%
Compound: CCOC(=O)[C@H](CCc1ccccc1)N[C@@H](C)C(=O)N1CCC[C@H]1C(=O)O [Enalapril]

remaining at 0.5 h (Plasma stability): 1.4%
Compound: CCN(CC)CCOC(=O)c1ccc(N)cc1 [Procaine]

Compound: CC(=O)N1CCN(c2ccc(OCC3COC(Cn4ccnc4)(c4ccc(Cl)cc4Cl)O3)cc2)CC1 (centres unmarked) [Ketoconazole, reference compound]
CYP Inhibition 2C19 (CYP2C19): 97.6

Compound: CC=C(NC(=O)c1csc(-c2csc(-c3ccc4c(n3)-c3csc(n3)C(C(C)O)NC(=O)c3csc(n3)C(C(C)C)NC(=O)c3csc(n3)C(=CC)NC(=O)C(C(C)O)NC(=O)c3csc-4n3)n2)n1)C(=O)NCCn1c([N+](=O)[O-])cnc1C (centres unmarked) [AJ-024]
MIC (S. aureus; [6]): 0.25 µg/mL (≈ 0.202 µM) | MIC (S. aureus; [7]): 0.25 µg/mL (≈ 0.202 µM) | MIC (S. aureus; [8]): 0.5 µg/mL (≈ 0.403 µM) | MIC (E. faecalis; [9]): 0.25 µg/mL (≈ 0.202 µM) | MIC (E. faecalis; [10]): 0.25 µg/mL (≈ 0.202 µM) | MIC (E. faecium; [11]): 0.25 µg/mL (≈ 0.202 µM) | MIC (E. faecium; [12]): 0.5 µg/mL (≈ 0.403 µM) | MIC (E. coli; [13]): > 32 µg/mL | MIC (K. pneumoniae; [14]): > 32 µg/mL | MIC (P. aeruginosa; [15]): > 32 µg/mL | MIC (A. baumannii; [16]): > 32 µg/mL

Compound: CN[C@H](CC(C)C)C(=O)N[C@H]1C(=O)N[C@@H](CC(N)=O)C(=O)N[C@H]2C(=O)N[C@H]3C(=O)N[C@H](C(=O)N[C@H](C(=O)O)c4cc(O)cc(O)c4-c4cc3ccc4O)[C@H](O)c3ccc(c(Cl)c3)Oc3cc2cc(c3O[C@@H]2O[C@H](CO)[C@@H](O)[C@H](O)[C@H]2O[C@H]2C[C@](C)(N)[C@H](O)[C@H](C)O2)Oc2ccc(cc2Cl)[C@H]1O [Vancomycin]
MIC (C. difficile [1]; ATCC9689): 1 µg/mL (≈ 0.69 µM) | MIC (C. difficile [1]; ATCC17858): 1 µg/mL (≈ 0.69 µM) | MIC (C. difficile [1]; ATCC43255): 1 µg/mL (≈ 0.69 µM) | MIC (C. difficile [1]; ATCC51695): 1 µg/mL (≈ 0.69 µM) | MIC (C. difficile [1]; ATCCBAA1871): 1 µg/mL (≈ 0.69 µM) | MIC range [2]: 0.5 to 2 µg/mL | MIC50 ([2]; Clostridioides difficile): 1 µg/mL (≈ 0.69 µM) | MIC (S. aureus): > 32 µg/mL | MIC (S. aureus; ATCC25923): 0.5 µg/mL (≈ 0.345 µM) | MIC (S. aureus; ATCC43300): 0.5 µg/mL (≈ 0.345 µM) | MIC (E. faecalis): > 32 µg/mL | MIC (E. faecalis; ATCC29212): 0.5 µg/mL (≈ 0.345 µM) | MIC (E. faecium): > 32 µg/mL | MIC (E. faecium; ATCC19434): 1 µg/mL (≈ 0.69 µM) | MIC (E. coli): > 32 µg/mL | MIC (K. pneumoniae): > 32 µg/mL | MIC (P. aeruginosa): > 32 µg/mL | MIC (A. baumannii): > 32 µg/mL | Killing activity (bactericidal / bacteriostatic) [3]: bacteriostatic | Survival rate [4]: 80% | Rate of relapse (C. difficile [5]): 25% to 30%

fraction unbound at 4 h, 10 μM (in vitro): 0.212
Compound: C[C@@H]1C[C@H]2[C@@H]3CCC4=CC(=O)C=C[C@]4(C)[C@@]3(F)[C@@H](O)C[C@]2(C)[C@@]1(O)C(=O)CO [Dexamethasone, reference compound]

Compound: CC(=O)NC[C@H]1CN(c2ccc(N3CCOCC3)c(F)c2)C(=O)O1 [LIZ, Linezolid]
MIC (S. aureus; [6]): 2 µg/mL (≈ 5.93 µM) | MIC (S. aureus; [7]): 2 µg/mL (≈ 5.93 µM) | MIC (S. aureus; [8]): 1 µg/mL (≈ 2.96 µM) | MIC (E. faecalis; [9]): 2 µg/mL (≈ 5.93 µM) | MIC (E. faecalis; [10]): 4 µg/mL (≈ 11.9 µM) | MIC (E. faecium; [11]): 2 µg/mL (≈ 5.93 µM) | MIC (E. faecium; [12]): 2 µg/mL (≈ 5.93 µM) | MIC (E. coli; [13]): > 32 µg/mL | MIC (K. pneumoniae; [14]): > 32 µg/mL | MIC (P. aeruginosa; [15]): > 32 µg/mL | MIC (A. baumannii; [16]): > 32 µg/mL
